Consider one compound from PMC10169810, “Ligand-induced activation and G protein coupling of prostaglandin F2α receptor” (Nature Communications, 2023).

pEC50: −log10 of the molar value. Where “and” joins values, the source holds several entries; their conditions need not be identical. Equal values may be shown once.

The target of one test is T1, FP F205A (Homo sapiens, UniProt P43088, F205A).
T1 construct: Flag; expressed in transfected cells; host or cells: AD293 cells
Put plainly: IP-One accumulation assay, FP F205A mutant. The following applies: F205A mutant vs WT FP; IP1 accumulation, AD293 cells; single values of n = 3 independent samples. It is filed as cell-based. On the procedure: (§1) IP-One production was measured using the IP-One HTRF kit (Cisbio)[50]. Briefly, AD293 cells (Agilent) were grown to a density of 400,000–500,000 cells per mL and then […] with separate plasmids at a suitable concentration. The culture was collected by centrifugation 24 h after incubation at 37 °C in 5% CO2 with a Stimulation Buffer. The cell suspension was then dispensed in a white 384-well plate at a volume of 7 μl per well before adding 7 μl of ligands. The mixture was incubated for 1 h at 37 °C. IP-One-d2 and anti-IP-One Cryptate dissolved in Lysis Buffer (3 μl each) were subsequently added and incubated for 15-30 min at room temperature before measurement. Intracellular IP-One measurement was carried out with the IP-One HTRF kit and EnVision multi-plate reader (PerkinElmer) according to the manufacturer’s instructions. Data were normalized to the baseline response of the ligand. pEC50 Emin, and Emax for each curve were calculated by GraphPad Prism 8.0. ∆pEC50 equals pEC50 of agonists to specific Mutant minus pEC50 of agonists to WT. Data are presented as mean values ± SEM; n = 3 independent samples; n.s. no significant; *p < 0.05; **p < 0.01; ***p < 0.001.

Another test has as its system EP3. Details: method as in PMID 10785618. The note with it: cited from earlier work.
For the next test, the target named is T2, FP Q297A (Homo sapiens, UniProt P43088, Q297A).
T2 construct: Flag; expressed in transfected cells; host or cells: AD293 cells
Nature of the test: IP-One accumulation assay, FP Q297A mutant. Type of test: cell-based. The note with it: Q297A mutant vs WT FP; IP1 accumulation, AD293 cells; single values of n = 3 independent samples. On the procedure:
as §1

For another test, the target named is T3, FP Y92A (Homo sapiens, UniProt P43088, Y92A).
T3 construct: Flag; expressed in transfected cells; host or cells: AD293 cells
Nature of the test: IP-One accumulation assay, FP Y92A mutant. The note with it: Y92 mutant (alanine) vs WT FP. Type of test: cell-based. On the procedure: as §1

The target of the next test is T4, FP T294A (Homo sapiens, UniProt P43088, T294A).
T4 construct: Flag; expressed in transfected cells; host or cells: AD293 cells
Put plainly: IP-One accumulation assay, FP T294A mutant. Type of test: cell-based. On the procedure: as §1

For a further test, the target named is T5, FP I290A (Homo sapiens, UniProt P43088, L290A).
T5 construct: Flag; expressed in transfected cells; host or cells: AD293 cells
Put plainly: IP-One accumulation assay, FP I290A mutant. Type of test: cell-based. The note with it: I290A mutant vs WT FP; IP1 accumulation, AD293 cells; single values of n = 3 independent samples. As for the experimental part:
as §1

The target of the next test is T6, FP W185A (Homo sapiens, UniProt P43088, W185A).
T6 construct: Flag; expressed in transfected cells; host or cells: AD293 cells
Nature of the test: IP-One accumulation assay, FP W185A mutant. The following applies: W185A mutant vs WT FP; IP1 accumulation, AD293 cells; single values of n = 3 independent samples. It is filed as cell-based. As for the experimental part:
as §1

A further test concerns EP1. Details: method as in PMID 10785618. The note with it: cited from earlier work.
Another test addresses T7, FP T184A (Homo sapiens, UniProt P43088, T184A).
T7 construct: Flag; expressed in transfected cells; host or cells: AD293 cells
Nature of the test: IP-One accumulation assay, FP T184A mutant. It is filed as cell-based. The note with it: T184 mutant (alanine) vs WT FP. On the procedure:
as §1

For another test, the target named is T8, FP F265A (Homo sapiens, UniProt P43088, F265A).
T8 construct: Flag; expressed in transfected cells; host or cells: AD293 cells
Nature of the test: IP-One accumulation assay, FP F265A mutant. The following applies: F265A mutant vs WT FP; IP1 accumulation, AD293 cells; single values of n = 3 independent samples. It is filed as cell-based. On the procedure:
as §1

The target in the next test is T9, FP M115A (Homo sapiens, UniProt P43088, M115A).
T9 construct: Flag; expressed in transfected cells; host or cells: AD293 cells
Put plainly: IP-One accumulation assay, FP M115A mutant. It is filed as cell-based. The note with it: M115 to alanine vs WT FP. On the procedure: as §1

A further test addresses T10, FP I298A (Homo sapiens, UniProt P43088, I298A).
T10 construct: Flag; expressed in transfected cells; host or cells: AD293 cells
Nature of the test: IP-One accumulation assay, FP I298A mutant. Type of test: cell-based. The following applies: I298A mutant vs WT FP; IP1 accumulation, AD293 cells; single values of n = 3 independent samples. As for the experimental part:
as §1

A further test has as its target T11, FP S118F (Homo sapiens, UniProt P43088, S118F).
T11 construct: Flag; expressed in transfected cells; host or cells: AD293 cells
Nature of the test: IP-One accumulation assay, FP S118F mutant. Type of test: cell-based. The following applies: S118F mutant vs WT FP; IP1 accumulation, AD293 cells; single values of n = 3 independent samples. On the procedure:
as §1

The target of a further test is T12, FP S118A (Homo sapiens, UniProt P43088, S118A).
T12 construct: Flag; expressed in transfected cells; host or cells: AD293 cells
Nature of the test: IP-One accumulation assay, FP S118A mutant. Type of test: cell-based. On the procedure:
as §1

The next test has as its target T13, FP R291A (Homo sapiens, UniProt P43088, R291A).
T13 construct: Flag; expressed in transfected cells; host or cells: AD293 cells
Put plainly: IP-One accumulation assay, FP R291A mutant. Type of test: cell-based. The note with it: R291 mutant (alanine) vs WT FP. On the procedure:
as §1

The test system of the next test is FP. Further details: method as in PMID 10785618. The note with it: cited from earlier work.
A further test has as its target T14, FP S33A (Homo sapiens, UniProt P43088, S33A).
T14 construct: Flag; expressed in transfected cells; host or cells: AD293 cells
Put plainly: IP-One accumulation assay, FP S33A mutant. The following applies: S33 to alanine vs WT FP. It is filed as cell-based. As for the experimental part:
as §1

The target of another test is T15, FP S118N (Homo sapiens, UniProt P43088, S118N).
T15 construct: Flag; expressed in transfected cells; host or cells: AD293 cells
Put plainly: IP-One accumulation assay, FP S118N mutant. Type of test: cell-based. As for the experimental part: as §1

T12 sequence (P43088 whole entry S118A): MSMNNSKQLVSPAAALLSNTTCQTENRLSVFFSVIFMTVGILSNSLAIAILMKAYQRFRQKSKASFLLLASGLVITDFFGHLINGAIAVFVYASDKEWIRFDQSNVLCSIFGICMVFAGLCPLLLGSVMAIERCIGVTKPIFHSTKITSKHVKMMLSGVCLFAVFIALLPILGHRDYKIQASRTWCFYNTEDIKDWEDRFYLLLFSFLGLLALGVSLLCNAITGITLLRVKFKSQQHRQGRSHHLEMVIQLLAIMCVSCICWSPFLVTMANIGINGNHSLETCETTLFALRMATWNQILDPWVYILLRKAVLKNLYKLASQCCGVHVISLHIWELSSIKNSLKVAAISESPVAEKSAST
T5 sequence (P43088 whole entry L290A): as the sequence (P43088 whole entry S118A) above, with A118S, L290A counted along it
T4 sequence (P43088 whole entry T294A): as the sequence (P43088 whole entry S118A) above, with A118S, T294A counted along it
T15 sequence (P43088 whole entry S118N): as the sequence (P43088 whole entry S118A) above, with A118N counted along it
T1 sequence (P43088 whole entry F205A): as the sequence (P43088 whole entry S118A) above, with A118S, F205A counted along it
T11 sequence (P43088 whole entry S118F): as the sequence (P43088 whole entry S118A) above, with A118F counted along it
T2 sequence (P43088 whole entry Q297A): as the sequence (P43088 whole entry S118A) above, with A118S, Q297A counted along it
T6 sequence (P43088 whole entry W185A): as the sequence (P43088 whole entry S118A) above, with A118S, W185A counted along it
T10 sequence (P43088 whole entry I298A): as the sequence (P43088 whole entry S118A) above, with A118S, I298A counted along it
T8 sequence (P43088 whole entry F265A): as the sequence (P43088 whole entry S118A) above, with A118S, F265A counted along it
T3 sequence (P43088 whole entry Y92A): as the sequence (P43088 whole entry S118A) above, with Y92A, A118S counted along it
T14 sequence (P43088 whole entry S33A): as the sequence (P43088 whole entry S118A) above, with S33A, A118S counted along it
T7 sequence (P43088 whole entry T184A): as the sequence (P43088 whole entry S118A) above, with A118S, T184A counted along it
T9 sequence (P43088 whole entry M115A): as the sequence (P43088 whole entry S118A) above, with M115A, A118S counted along it
T13 sequence (P43088 whole entry R291A): as the sequence (P43088 whole entry S118A) above, with A118S, R291A counted along it

On to `O=C(O)CCC/C=C\C[C@@H]1[C@@H](CC[C@@H](O)CCc2ccccc2)[C@H](O)C[C@@H]1O` [LTPA, Latanoprost acid], for which the “∆pEC50 (pEC50 of agonist to mutant minus pEC50 to WT)” value is -2.3 and -2.1 and -2.2 on FP F205A; -1.5 and -1.4 on FP Q297A; -2.0 and -1.8 and -1.9 on FP T294A (T294A mutant vs WT FP, IP1 accumulation, AD293 cells, single values of n = 3 independent samples); -1.1 and -1.3 and -1.0 on FP I290A; -2.9 and -2.7 on FP W185A; -2.5 and -2.2 at FP F265A. Further, the “∆pEC50 (pEC50 of agonist to mutant minus pEC50 to WT)” value was -1.8 and -2.1 on FP I298A; -1.0 and -0.9 and -0.8 at FP S118F; -1.0 and -0.9 at FP S118A (S118A mutant vs WT FP, IP1 accumulation, AD293 cells, single values of n = 3 independent samples); -1.0 and -1.1 and -1.2 at FP S118N (S118N mutant vs WT FP, IP1 accumulation, AD293 cells, single values of n = 3 independent samples). For the same compound, the pEC50 with EP3 is 4.77; in the test on EP1, 5.16; with FP (FP), 8.44. Also, the “effect of mutation on agonist activity / potency (in words)” value on FP Y92A, at FP T184A and at FP R291A was “significantly decreased the potency” each time. Moreover, the “effect of mutation on agonist affinity / potency (in words)” value on FP T294A (T294 to alanine vs WT FP) and at FP S33A was “significantly decreased the potency” each time. In addition, the “effect of mutation on agonist potency (in words)” value is on record as “significantly decreased the potency” at FP M115A, “significantly reduced the potency” on FP S118A (S118 to alanine vs WT FP) and “significantly reduced the potency” at FP S118N (S118 to asparagine vs WT FP). The “selectivity enhancement compared to PGF2α” value in the test with FP (FP versus EP1 and EP3) was “more than 100 times”.
